Data set [1] can be described thus: pH limit of the complex solution during preparation (loss of biological activities). It counts as physicochemical. To be noted: pH above 6.1; solution reacts with air-containing CO2.
For data set [2], the system named is salicylate hydroxylation to 2,3-DHBA. Nature of the data set: 2,3-DHBA assay in blood of high energy diet fed sand rats. To be noted: 2.5 mg/kg i.p. three times a week. In kind it is in vivo, sand rat (Psammomis obesus). The procedure: To measure 2,3-DHBA the animals were injected i.p. with 100 mg/kg salicylate in saline buffer. As a product of salicylate hydroxylation, the 2,3-DHBA was quantified using HPLC coupled with electrochemical detection (HPLC-ECD), using a Varian 5000 liquid chromatograph (Varian Analytical Instruments, Walnut Creek, Calif., USA) equipped with a Rheodyne 7125 sample injector (20 μl loop; Rheodyne L. P., Rohnert Park, Calif., USA). The column used for separation of salicylate and DHBA was a 250×4 mm LiChrospher 100RP-18, 5 μm (Merck, Darmstadt, Germany). The chromatograms were recorded using a PC-based data acquisition and processing system (EZChrom Elite, San-Ramon, Calif., USA).
Nineteen sand rats were divided into three groups. Group I (n=4) received a standard diet and was used as a control. Groups II (n=7) and III (n=8) received a high energy diet, leading to diabetes development. Group III was treated with 2.5 mg Zn-DFO i.p. per kg body weight three times a week, while Group II was injected with saline according to the same pattern. After the blood glucose and body weight monitoring for 63 days, glucose tolerance test was performed and blood level of 2,3-DHBA and catechols was also measured. As previously done, cataract formation was tested as well. […] The concentration of actin, Trx and TrxR were measured by Western Blotting, and the activity of Msr was analyzed by HPLC as described.

The test system of the next data set is lens proteins. Nature of the data set: Lens proteins of high energy diet fed sand rats (total protein, Trx, TrxR, actin, Msr activity, ferritin). In kind it is in vivo, sand rat (Psammomis obesus). The procedure:
Ferritin concentration was quantified using an indirect ‘sandwich’ ELISA assay in accordance with a procedure developed previously in our laboratory. Briefly, ELISA 96-well micro plates were pre-coated with goat anti-human L-ferritin antibody. Rabbit anti-human H-ferritin was used as the secondary antibody. Plates were treated with goat anti-rabbit IgG conjugated with β-galactosidase. Chlorophenol Red-β-D-Galactopyranoside was then added and the plates analyzed using a microplate reader with a test (570 nm) and reference (630 nm) filters.
Quantification of the activity of methionine-sulfoxide reductase (Msr) was carried out by incubation the tissue lysates with dabsyl-methionine sulfoxide for 30 min at 37° C., followed by analysis of the reduced product (dabsyl methionine) by HPLC-spectrophotometric detection at 436 nm Assay: total volume 100 μl, including 200 μM Dabsyl-met (O) (as a substrate). The reaction mixture contained also 20 mM DTT, buffer, ˜100 μg protein. The incubation (reaction) was stopped by adding 100 μl of acetonitrile, spinning down, and discarding the protein fraction. The chromatography was run on a 150 mm 3 μm C-18 column, using a gradient (A to B). A=19 g of sodium acetate, pH 6.0 plus 0.5 ml of triethylamine, in one liter of solution; B=acetonitrile (pure). The substrate, dabsyl-Met (0) was prepared as described [Moskovitz, J. et al. (2001) Proc Natl Acad Sci USA, 98 (23): p. 12920-5; Moskowitz et al. (1997) Proc Natl Acad Sci USA, 94 (18): p. 9585-93].
Nineteen sand rats were divided into three groups. Group I (n=4) received a standard diet and was used as a control. Groups II (n=7) and III (n=8) received a high energy diet, leading to diabetes development. Group III was treated with 2.5 mg Zn-DFO i.p. per kg body weight three times a week, while Group II was injected with saline according to the same pattern. After the blood glucose and body weight monitoring for 63 days, glucose tolerance test was performed and blood level of 2,3-DHBA and catechols was also measured. As previously done, cataract formation was tested as well. The retina and lens were collected for biochemical analysis of the concentration of ferritin, thioredoxin-1 (Trx) and thioredoxin reductase-1 (TrxR), total lens protein and methionine sulfoxide reductase (Msr) activity. The concentration of actin, Trx and TrxR were measured by Western Blotting, and the activity of Msr was analyzed by HPLC as described.

The mark [3] stands for this setting: Western Blotting, diabetes-induced decrease.

The results in this text go back to US9770430B2, “Desferrioxamine-metal complexes for the treatment of immune-related disorders” (priority 2009, dated 2017).

As for `CC(=O)N(O)CCCCCNC(=O)CCC(=O)N([O-])CCCCCNC(=O)CCC(=O)N([O-])CCCCCN.[Zn+2]` [Zn-DFO, Zinc-desferrioxamine], the “effect of higher pH on the Zn-DFO solution” value in data set [1] is recorded as “marked loss of the biological activities”. Besides, the “2,3-DHBA blood concentration” value in data set [2] is on record as “maintained almost baseline values”. In the data set with lens proteins (HPLC, diabetes-induced decrease), the “lens Msr activity” value is reported as “partial, but statistically significant restoration”. Besides, in the data set with lens proteins (setting [3]), the “lens concentration of Trx” value is reported as “partial, but statistically significant restoration”; the “lens concentration of TrxR” value is “partial, but statistically significant restoration”; the “lens concentration of actin” value is listed as “partial, but statistically significant restoration”. In the data set with lens proteins (diabetes-induced decrease), the “total lens protein concentration (Bradford assay)” value is “partly prevented this decrease”. Further, the “decrease in lens ferritin level” value with lens proteins (versus diabetic animals) was 3.8 fold.
